Measured values from ChEMBL document CHEMBL5036357, “2,3-Difunctionalized Benzo[b]thiophene Scaffolds Possessing Potent Antiangiogenic Properties” (J Med Chem, 2022).
Each block holds one molecule with its values, some of them ahead of it. Activity calls are given as the source filed them. No cut-off for these calls is given here.

Tests used:
[1] = system: HUVEC; experiment: Anti-angiogenesis activity against HUVEC cells assessed as tubule formation at 250 nM incubated for 6 hrs by inverted fluorescence microscopic analysis relative to control; format: functional, Homo sapiens
[2] = system: HUVEC; experiment: Anti-angiogenesis activity against HUVEC cells assessed as tubule formation at 10 uM incubated for 6 hrs by inverted fluorescence microscopic analysis relative to control; format: functional, Homo sapiens
[3] = Intrinsic clearance in rat liver microsomes; format: ADME, Microsome
[4] = Elimination rate constant in Sprague-Dawley rat at 25 mg/kg, IM measured up to 48 hrs; format: ADME, organism-based; conditions: in vivo
[5] = system: MDA-MB-468; experiment: Antitumor activity against human MDA-MB-468 cells xenografted in CD-1 mouse assessed as reduction in tumor size at 30 mg/kg, iv administered once daily for 21 days; format: functional, organism-based; conditions: time 21.0 day
[6] = system: HUVEC; experiment: Effect on cell cycle distribution in HUVEC cells assessed as accumulation of cells in G2 phase at 250 nM measured after 24 hrs by propidium iodide staining based flow cytometry analysis (Rvb= 1.67%); format: functional, Homo sapiens
[7] = Half life in Sprague-Dawley rat at 25 mg/kg, IM measured up to 48 hrs; format: ADME, organism-based; conditions: in vivo
[8] = Stability in culture media assessed as compound remaining at 250 to 500 nM measured up to 24 hrs; format: physicochemical; conditions: dose 250-500 nM, read-out: Stability
[9] = species: Mus musculus; experiment: Antiangiogenic activity in BALB/c mouse assessed as reduction in neovascularization by measuring reduction in hemoglobin concentration at 250 nM by matrigel plug assay; format: functional, organism-based
[10] = system: HUVEC; experiment: Inhibition of tube formation in HUVEC at 50 to 100 nM measured up to 12 hrs by calcein-AM staining based fluorescence microscopic analysis; format: functional, cell-based; conditions: Homo sapiens, dose 50-100 nM, time hrs <=12
[11] = biological target: T1, Tubulin (Homo sapiens) (UniProt P68371+Q9H4B7+P0DPH7+P68366+Q13509+Q71U36+P04350+Q3ZCM7+P07437+P68363+Q9BQE3+Q6PEY2+Q13885+Q9BVA1+Q9BUF5); experiment: Induction of microtubule depolymerization in HUVEC assessed as assessed as microtubule network abnormalities at 250 nM incubated for 6 hrs by […] based confocal microscopic analysis; format: tissue-based
[12] = system: HUVEC; experiment: Downregulation of p-Akt expression in HUVEC cells at 250 nM measured after 6 hrs by Western blot analysis; format: functional, cell-based; conditions: Homo sapiens
[13] = Stability in simulated intestinal fluid at pH 6.8 assessed as parent compound remaining after 2 hrs; format: ADME; conditions: read-out: Stability
[14] = system: HUVEC; experiment: Antiangiogenic activity against HUVEC cells assessed as inhibition of cell migration measured after 24 hrs by scratch wound closure assay; format: functional, cell-based; conditions: Homo sapiens
[15] = Stability in simulated gastric fluid at pH 1.2 assessed as parent compound remaining after 2 hrs; format: ADME; conditions: read-out: Stability
[16] = Clearance in Sprague-Dawley rat at 25 mg/kg, IM measured up to 48 hrs; format: ADME, organism-based; conditions: in vivo
[17] = system: HUVEC; experiment: Induction of F-actin depolymerization in HUVEC assessed as loss of F-actin continuity at 250 nM incubated for 6 hrs by phalloidin staining based confocal microscopic analysis; format: tissue-based; conditions: Homo sapiens
[18] = Tmax in Sprague-Dawley rat at 25 mg/kg, IM measured up to 48 hrs; format: ADME, organism-based; conditions: in vivo
[19] = system: HUVEC; experiment: Induction of F-actin depolymerization in HUVEC assessed as loss of endothelial cell morphology at 250 nM incubated for 6 hrs by phalloidin staining based confocal microscopic analysis; conditions: Homo sapiens
[20] = system: HUVEC; experiment: Inhibition of tube formation in HUVEC measured up to 12 hrs by calcein-AM staining based fluorescence microscopic analysis; format: functional, cell-based; conditions: Homo sapiens, dose 250-10000 nM, time hrs <=12
[21] = Metabolic stability in rat liver microsomes assessed as half life; format: ADME, Microsome
[22] = species: Mus musculus; experiment: Antiangiogenic activity in BALB/c mouse assessed as assessed as reduction in CD31-positive microvessel density in ear tissue at 250 nM measured after 6 days by fluorescence microscopic analysis; format: functional, organism-based; conditions: time 6.0 day
[23] = biological target: T1, Tubulin (Homo sapiens); experiment: Induction of microtubule depolymerization in HUVEC assessed as assessed as plasma membrane blebbing at 250 nM incubated for 6 hrs by […] based confocal microscopic analysis; format: cell membranes
[24] = Cmax in Sprague-Dawley rat at 25 mg/kg, IM measured up to 48 hrs; format: ADME, organism-based; parameters: route intramuscular, dose 25 mg/kg, time <=48; conditions: in vivo
[25] = system: HUVEC; experiment: Downregulation of p-Src expression in HUVEC cells at 250 nM measured after 6 hrs by Western blot analysis; format: functional, cell-based; conditions: Homo sapiens
[26] = system: HUVEC; experiment: Induction of F-actin depolymerization in HUVEC assessed as plasma membrane blebbing at 250 nM incubated for 6 hrs by phalloidin staining based confocal microscopic analysis; format: cell membranes; conditions: Homo sapiens
[27] = biological target: T1, Tubulin (Homo sapiens); experiment: Induction of microtubule depolymerization in HUVEC assessed as assessed as loss of endothelial cell morphology at 250 nM incubated for 6 hrs by […] based confocal microscopic analysis
[28] = system: HUVEC; experiment: Antiangiogenic activity against VEGF-stimulated HUVEC cells assessed as reduction in endothelial sprouting tubules incubated for 3 days by Cytodex-3 beads based inverted microscopic analysis; format: functional, cell-based; conditions: Homo sapiens, dose 250-1000 nM, time 3.0 day
[29] = system: HUVEC; experiment: Downregulation of ICAM-1 expression in HUVEC cells at 250 nM measured after 6 hrs by Western blot analysis; format: functional, cell-based; conditions: Homo sapiens
[30] = system: HUVEC; experiment: Cytotoxicity against HUVEC assessed as reduction in cell proliferation at 250 nM measured after 24 hrs by MTT assay; format: cell-based; conditions: human, 0.25 µM
[31] = Apparent volume of distribution in Sprague-Dawley rat at 25 mg/kg, IM measured up to 48 hrs; format: ADME, organism-based; conditions: in vivo
[32] = Stability in rat plasma assessed as compound remaining measured up to 2 hrs; format: ADME, cell-free; conditions: read-out: Stability
[33] = system: HUVEC; experiment: Antiangiogenic activity against HUVEC cells assessed as inhibition of cell migration measured after 12 hrs by scratch wound closure assay relative to control; format: functional, Homo sapiens
[34] = Metabolic stability in rat liver microsomes assessed as dissociation rate constant; format: ADME, Microsome
[35] = biological target: Vascular endothelial growth factor receptor 2 (Homo sapiens) (UniProt P35968); experiment: Inhibition of VEGFR2 phosphorylation in VEGF-induced HUVEC cells pretreated at 0.5 to 20 uM by Western blot analysis; format: cell-based; conditions: dose 0.5-20 µM
[36] = system: HUVEC; experiment: Vascular disruptive effect in HUVEC cells assessed as reduction in tube formation at 250 nM measured after 3 to 24 hrs by calcein-AM staining based fluorescence microscopic analysis; format: functional, cell-based; conditions: Homo sapiens, time 3-24 hrs
[37] = system: HUVEC; experiment: Anti-angiogenesis activity against HUVEC cells assessed as reduction in tubule formation at 50 nM incubated for 6 hrs by inverted fluorescence microscopic analysis relative to control; format: functional, Homo sapiens; parameters: scale not given: the % may be the effect or the level left
[38] = species: Mus musculus; experiment: Antiangiogenic activity in BALB/c mouse assessed as reduction in neovascularization by measuring reduction in hemoglobin concentration at 2 uM by matrigel plug assay; format: functional, organism-based
[39] = species: Mus musculus; experiment: Antiangiogenic activity in BALB/c mouse assessed as assessed as reduction in CD31-positive microvessel density in ear tissue at 2 uM measured after 6 days by fluorescence microscopic analysis; format: functional, organism-based; conditions: time 6.0 day

Vascular endothelial growth factor receptor 2 (Homo sapiens), sequence (P35968 whole entry): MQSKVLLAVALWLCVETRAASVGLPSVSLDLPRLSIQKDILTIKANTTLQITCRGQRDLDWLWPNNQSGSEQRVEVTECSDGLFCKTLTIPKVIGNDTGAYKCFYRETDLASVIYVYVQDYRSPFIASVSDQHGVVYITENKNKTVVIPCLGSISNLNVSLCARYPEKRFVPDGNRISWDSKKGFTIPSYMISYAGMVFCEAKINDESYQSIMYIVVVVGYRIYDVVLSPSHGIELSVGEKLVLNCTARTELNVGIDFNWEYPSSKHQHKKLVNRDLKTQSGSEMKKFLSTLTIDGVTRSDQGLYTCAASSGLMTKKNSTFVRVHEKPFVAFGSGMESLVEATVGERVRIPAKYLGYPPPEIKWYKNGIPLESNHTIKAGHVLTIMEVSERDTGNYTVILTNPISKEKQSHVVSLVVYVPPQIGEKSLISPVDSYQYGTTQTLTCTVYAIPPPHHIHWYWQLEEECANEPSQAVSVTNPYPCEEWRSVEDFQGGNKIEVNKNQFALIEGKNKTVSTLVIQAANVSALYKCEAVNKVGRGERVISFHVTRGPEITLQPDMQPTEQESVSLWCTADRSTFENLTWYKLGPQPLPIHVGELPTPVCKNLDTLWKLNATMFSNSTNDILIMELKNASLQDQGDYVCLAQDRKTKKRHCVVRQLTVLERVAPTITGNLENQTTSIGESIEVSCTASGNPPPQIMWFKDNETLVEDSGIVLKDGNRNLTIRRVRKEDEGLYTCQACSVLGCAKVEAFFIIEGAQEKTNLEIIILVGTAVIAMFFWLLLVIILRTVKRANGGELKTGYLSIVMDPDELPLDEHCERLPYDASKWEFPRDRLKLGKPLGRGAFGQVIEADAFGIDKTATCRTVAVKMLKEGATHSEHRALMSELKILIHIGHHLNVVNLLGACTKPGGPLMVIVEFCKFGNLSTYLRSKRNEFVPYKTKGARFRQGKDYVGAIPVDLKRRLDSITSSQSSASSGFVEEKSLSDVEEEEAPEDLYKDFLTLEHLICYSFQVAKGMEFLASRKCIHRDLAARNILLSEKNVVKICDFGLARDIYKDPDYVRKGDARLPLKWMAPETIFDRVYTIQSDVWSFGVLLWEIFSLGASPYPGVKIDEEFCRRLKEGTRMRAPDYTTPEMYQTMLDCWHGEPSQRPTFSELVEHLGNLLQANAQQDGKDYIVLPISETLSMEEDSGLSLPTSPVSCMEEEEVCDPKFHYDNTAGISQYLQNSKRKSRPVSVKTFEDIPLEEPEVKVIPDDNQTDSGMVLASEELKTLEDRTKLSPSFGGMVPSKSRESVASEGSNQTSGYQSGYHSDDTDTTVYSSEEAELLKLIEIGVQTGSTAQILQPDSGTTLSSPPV

Structure (SMILES): N#Cc1c(Nc2ccc(N)cc2)sc2ccccc12
Activity [1]: 51%
Activity [2]: 1%

Structure (SMILES): N#Cc1c(Nc2ccc(Cl)cc2)sc2ccccc12
Activity [1]: 45%
Activity [2]: 45%

Structure (SMILES): CC(=O)N(c1ccc(O)cc1)c1sc2ccccc2c1C#N
Activity [1]: 59%
Activity [2]: 36%

CLH [3]: 0.74 L/h
k el at 48 h [4]: 3.47e-05 s⁻¹
half-life [7]: 6 h
remaining at 24 h, up to 0.5 µM [8]: 78.3%
Activity [11]: Active
remaining at 2 h [13]: 89%
remaining at 2 h [15]: 90.4%
CL/F [16]: 205 mL/min/kg
Tmax [18]: 0.5 h
half-life [21]: 1.87 h
Activity [23]: Active
Cmax [24]: 442 ng/mL
Activity [26]: Active
Activity [27]: Active
Vz [31]: 107.16 L/kg
remaining at 2 h [32]: 89.1%
Kdiss [34]: 0.000103 s⁻¹
inhibition [35]: Active
Structure (SMILES): N#Cc1c(Nc2ccc(O)cc2)sc2ccccc12
Activity [5]: Active
Activity [6]: 1.58%
Activity [1]: 2%
Activity [9]: Active
inhibition [10]: inactive
Activity [12]: Active
inhibition [14]: inactive
Activity [17]: Active
Activity [19]: Active
inhibition [20]: Dose-Dependent Effect
Activity [22]: Active
Activity [25]: Active
Activity [2]: 25%
Activity [28]: Dose-Dependent Effect
Activity [29]: inactive
Activity [30]: Non-Toxic
inhibition (INH) [33]: 80%
Activity [36]: Active

Structure (SMILES): COc1ccc(Nc2sc3ccccc3c2C#N)cc1
Activity [2]: 57%

Structure (SMILES): N#Cc1c(Nc2ccc(F)cc2)sc2ccccc12
Activity [1]: 58%
Activity [2]: 25%

Structure (SMILES): COc1cc2sc(Nc3cccc(O)c3)c(C#N)c2cc1OC
Activity [1]: 67%
Activity [2]: 11%

Structure (SMILES): COc1cc2sc(Nc3ccc(O)cc3)c(C#N)c2cc1OC
Activity [1]: 73%
Activity [2]: 0%

Structure (SMILES): N#Cc1c(Nc2ccccc2)sc2cc3ccccc3cc12
Activity [2]: 50%

Structure (SMILES): N#Cc1c(Nc2ccc([N+](=O)[O-])cc2)sc2ccccc12
Activity [1]: 37%
Activity [2]: 8%

Structure (SMILES): N#Cc1c(Nc2ccc(C(F)(F)F)cc2)sc2ccccc12
Activity [1]: 65%
Activity [2]: 24%

Structure (SMILES): N#Cc1c(Nc2ccccc2O)sc2ccccc12
Activity [1]: 68%
Activity [2]: 19%

Structure (SMILES): COc1ccc(Nc2sc3c(OC)cc(OC)cc3c2C#N)cc1
Activity [2]: 63%

Structure (SMILES): N#Cc1c(Nc2ccccc2)sc2ccccc12
Activity [2]: 81%

Structure (SMILES): CCN(CC)CCNC(=O)c1c(C)[nH]c(/C=C2\C(=O)Nc3ccc(F)cc32)c1C [SUNITINIB]
Activity [37]: 43%
Activity [38]: Active
Activity [39]: Active

Structure (SMILES): N#Cc1c(Nc2ccccc2)sc2cc3c(cc12)OCO3
Activity [2]: 75%

Structure (SMILES): COc1c2c(cc3c(C#N)c(Nc4ccccc4)sc13)OCO2
Activity [2]: 81%

Structure (SMILES): COc1cc2sc(Nc3ccccc3)c(C#N)c2cc1OC
Activity [2]: 77%

Structure (SMILES): COc1cccc(Nc2sc3ccccc3c2C#N)c1
Activity [2]: 81%

Structure (SMILES): N#Cc1c(Nc2cccc(O)c2)sc2ccccc12
Activity [1]: 60%
Activity [2]: 0%
